ChEMBL document CHEMBL5247662, “Design, syntheses and biological evaluation of natural product aiphanol derivatives and analogues: Discovery of potent anticancer agents” (Bioorg Med Chem Lett, 2023)
pIC50: −log10 of the molar value.

What was measured:
Format in all cases: functional, cell-based
HT-29 = test: Antiproliferative activity against human HT-29 cells assessed as inhibition of cell growth measured after 48 hrs by CCK-8 assay; details: HT-29, 48 h
HCT-116 = test: Antiproliferative activity against human HCT-116 cells assessed as inhibition of cell growth measured after 48 hrs by CCK-8 assay; details: HCT-116, 48 h
AGS = test: Antiproliferative activity against human AGS cells assessed as inhibition of cell growth measured after 48 hrs by CCK-8 assay
MCF7 = test: Antiproliferative activity against human MCF7 cells assessed as inhibition of cell growth measured after 48 hrs by CCK-8 assay; details: MCF7, 48 h
SW1990 = test: Antiproliferative activity against human SW1990 cells assessed as inhibition of cell growth measured after 48 hrs by CCK-8 assay; details: SW1990, 48 h
Bel-7402 = test: Antiproliferative activity against human Bel-7402 cells assessed as inhibition of cell growth measured after 48 hrs by CCK-8 assay; details: Bel-7402, 48 h
KYSE-30 = test: Antiproliferative activity against human KYSE-30 cells expressing luciferase assessed as inhibition of cell growth measured after 48 hrs by CCK-8 assay; details: KYSE-30, 48 h
HepG2 = test: Antiproliferative activity against human HepG2 cells assessed as inhibition of cell growth measured after 48 hrs by CCK-8 assay; details: HepG2, 48 h

Structure (SMILES) | pIC50 (HT-29) | pIC50 (HCT-116) | also measured
CCOC(=O)/C=C/c1ccc2c(c1)O[C@@H](c1cc(OC)c(O)c(OC)c1)[C@H](CO)O2 | < 4.30 | < 4.30 | 
COc1cc([C@@H]2Oc3cc(/C=C/c4ccc(NC(C)=O)cc4)ccc3O[C@H]2CO)cc(OC)c1O | < 4.00 | < 4.00 | 
COc1cc([C@@H]2Oc3cc(/C=C/c4cc(O)cc(O)c4)ccc3O[C@H]2CN)cc(OC)c1O | 4.85 | 4.57 | 
COc1cc([C@@H]2Oc3cc(/C=C/c4cc(O)cc(O)c4)ccc3O[C@H]2CO[C@@H]2O[C@H](CO)[C@@H](O)[C@H](O)[C@H]2O)cc(OC)c1O | < 3.70 | < 3.70 | 
COc1cc([C@@H]2Oc3cc(/C=C/c4cc(O)cc(O)c4)ccc3O[C@H]2CNC(=O)S(=O)(=O)c2ccc(C)cc2)cc(OC)c1O | 5.23 | 5.33 | pIC50 (AGS): 5.31; pIC50 (MCF7): 5.20; pIC50 (SW1990): 5.02; pIC50 (Bel-7402): 5.20; pIC50 (KYSE-30): 4.75; pIC50 (HepG2): 5.13
COc1cc([C@@H]2Oc3cc(CCc4cc(O)cc(O)c4)ccc3O[C@H]2CO)cc(OC)c1O | 4.79 | 4.30 | 
COC(=O)c1ccc(/C=C/c2ccc3c(c2)O[C@@H](c2cc(OC)c(O)c(OC)c2)[C@H](CO)O3)cc1 | 4.99 | 4.67 | 
COc1cc([C@@H]2Oc3cc(C=O)ccc3O[C@H]2CO)cc(OC)c1O | < 4.00 | < 4.00 | 
OC[C@@H]1Oc2ccc(/C=C/c3cc(O)cc(O)c3)cc2O[C@H]1c1cc(F)c(O)c(F)c1 | 4.38 | < 4.30 | 
COc1cc([C@@H]2Oc3cc(/C=C/c4ccccc4C#N)ccc3O[C@H]2CO)cc(OC)c1O | 4.83 | 4.91 | 
COc1cc([C@@H]2Oc3cc(/C=C/c4ccc([N+](=O)[O-])cc4)ccc3O[C@H]2CO)cc(OC)c1O | 5.33 | 5.15 | 
COc1cc([C@@H]2Oc3cc(/C=C/c4ccc5ccccc5n4)ccc3O[C@H]2CO)cc(OC)c1O | 4.83 | 5.05 | 
OC[C@@H]1Oc2ccc(/C=C/c3cc(O)cc(O)c3)cc2O[C@H]1c1ccc(O)cc1 | 4.62 | < 4.30 | 
COc1cc([C@@H]2Oc3cc(/C=C/c4cccc(C#N)c4)ccc3O[C@H]2CO)cc(OC)c1O | 4.87 | 4.94 | 
COc1cc([C@@H]2Oc3cc(/C=C/c4cc(O)cc(O)c4)ccc3O[C@H]2CNC(=O)c2ccc(C(F)(F)F)cc2)cc(OC)c1O | 5.05 | 4.94 | 
COc1cc([C@@H]2Oc3cc(/C=C/c4cc(OC(C)=O)cc(OC(C)=O)c4)ccc3O[C@H]2COC(C)=O)cc(OC)c1OC(C)=O | 4.98 | 4.70 | 
COc1cc([C@@H]2Oc3cc(/C=C/c4cc(O)cc(O)c4)ccc3O[C@H]2CNC(=O)C(C)C)cc(OC)c1O | 4.86 | 4.48 | 
COc1cc([C@@H]2Oc3cc(/C=C/c4ccc(C(F)(F)F)cc4)ccc3O[C@H]2CO)cc(OC)c1O | 4.60 | 4.57 | 
COc1cc([C@@H]2Oc3cc(/C=C/c4ccccn4)ccc3O[C@H]2CO)cc(OC)c1O | 4.48 | 4.77 | 
OC[C@@H]1Oc2ccc(/C=C/c3cc(O)cc(O)c3)cc2O[C@H]1c1cc(Br)c(O)c(Br)c1 | 4.52 | 4.40 | 

Structure (SMILES) | pIC50 (HT-29) | pIC50 (HCT-116) | also measured
COc1cc([C@@H]2Oc3cc(/C=C/c4cc(O)cc(O)c4)ccc3O[C@H]2CNC(C)=O)cc(OC)c1O | 5.07 | 4.32 | 
COc1cc([C@@H]2Oc3cc(/C=C/c4ccc(C#N)cc4)ccc3O[C@H]2CO)cc(OC)c1O | 5.62 | 5.69 | pIC50 (AGS): 6.09; pIC50 (MCF7): 5.92; pIC50 (SW1990): 5.82; pIC50 (Bel-7402): 6.07; pIC50 (KYSE-30): 5.53; pIC50 (HepG2): 5.65
COc1cc([C@@H]2Oc3ccccc3O[C@H]2CO)cc(OC)c1O | < 4.00 | < 4.00 | 
COc1cc([C@@H]2Oc3cc(/C=C/c4cc(O)cc(O)c4)ccc3O[C@H]2CNC(=O)c2ccc(F)c(F)c2)cc(OC)c1O | 4.81 | 4.85 | 
COc1cc([C@@H]2Oc3cc(-c4ccccc4)ccc3O[C@H]2CO)cc(OC)c1O | 4.72 | 4.78 | 
CCCCCCCCCCCCC(=O)NC[C@@H]1Oc2ccc(/C=C/c3cc(O)cc(O)c3)cc2O[C@H]1c1cc(OC)c(O)c(OC)c1 | 5.11 | 4.84 | 
COc1ccc(C(=O)NC[C@@H]2Oc3ccc(/C=C/c4cc(O)cc(O)c4)cc3O[C@H]2c2cc(OC)c(O)c(OC)c2)cc1 | 4.79 | 4.80 | 
COc1cc([C@@H]2Oc3cc(/C=C/c4ccccc4)ccc3O[C@H]2CO)cc(OC)c1O | 5.04 | 4.91 | 
COc1cc([C@@H]2Oc3cc(/C=C/c4cc(O)cc(O)c4)ccc3O[C@H]2CNC(=O)c2ccccc2)cc(OC)c1O | 4.71 | 4.80 | 
COc1cc([C@@H]2Oc3cc(/C=C/c4ccsc4)ccc3O[C@H]2CO)cc(OC)c1O | 4.64 | 4.37 | 
COc1cc([C@@H]2Oc3cc(/C=C/c4cc(O)cc(O)c4)ccc3O[C@H]2CNC(=O)c2ccc(F)cc2)cc(OC)c1O | 5.10 | 4.78 | 
COc1cc([C@@H]2Oc3cc(/C=C/c4cc(OC(C)=O)cc(OC(C)=O)c4)ccc3O[C@H]2CO)cc(OC)c1OC(C)=O | 5.10 | 4.51 | 
COc1cc([C@@H]2Oc3cc(/C=C/c4ccc(I)cc4)ccc3O[C@H]2CO)cc(OC)c1O | 4.60 | 4.55 | 
COc1cc([C@@H]2Oc3cc(/C=C/c4cc(O)cc(O)c4)ccc3O[C@H]2CO[C@@H]2O[C@H](CO)[C@H](O)[C@H](O)[C@H]2O)cc(OC)c1O | < 3.70 | < 3.70 | 
OC[C@@H]1Oc2ccc(/C=C/c3cc(O)cc(O)c3)cc2O[C@H]1c1cc(Cl)c(O)c(Cl)c1 | 4.26 | < 4.30 | 
COc1cc([C@@H]2Oc3cc(/C=C/c4cc(O)cc(O)c4)ccc3O[C@H]2CNC(=O)c2cc(F)c(F)c(F)c2)cc(OC)c1O | 5.15 | 4.91 | 
COc1cc([C@@H]2Oc3cc(/C=C/c4cc(O)cc(O)c4)ccc3O[C@H]2CO)cc(OC)c1O | 5.08 | 4.70 | pIC50 (AGS): 4.41; pIC50 (MCF7): 4.34; pIC50 (SW1990): 4.55; pIC50 (Bel-7402): 4.19; pIC50 (KYSE-30): 4.21; pIC50 (HepG2): 4.41
COc1cc(/C=C/c2ccc3c(c2)O[C@@H](c2cc(OC)c(O)c(OC)c2)[C@H](CO)O3)cc(OC)c1 | 4.85 | 4.80 | 
COc1cc([C@@H]2Oc3cc(/C=C/c4cc(O)cc(O)c4)ccc3O[C@H]2CNC(=O)S(C)(=O)=O)cc(OC)c1O | 4.78 | 4.53 | 
COc1cc(C2Oc3cc(/C=C/c4nc(C)c5ccccc5n4)ccc3OC2CO)cc(OC)c1O (single isomer, unassigned) | 5.36 | 5.41 | 
